A short description of data set [1]: 19F spin-lattice relaxation time (T1) measurement by inversion recovery method, 500 MHz NMR. Type of data set: physicochemical. To be noted: 5 mM/CDCl3, 36° C. On the procedure: (§1) For each of the compounds of Examples 1 to 10, Comparative Example 1, and Comparative Example 2 obtained as above, a ^19F spin-lattice relaxation time (T1) and a ^19F spin-spin relaxation time (T2) were measured by the following method.
The compound was dissolved in a deuterated chloroform solution at a concentration of 5 mM, and the longitudinal relaxation time (T1) of the ^19F nucleus was measured using a 500 MHz NMR device by an inversion recovery method under the conditions described below.
• NMR device: JNM-ECA500 (manufactured by JOEL) • Measurement temperature: 36° C. • Pulse sequence: double_pulse • relaxation_delay: 10 [s] • tau_interval: 4, 3, 2, 1, 0.8, 0.6, 0.4, 0.2, 0.1 [s], 80, 60, 40, 20, 10, 8, 6, 4, 2 [ms] • Accumulated number of times: 128 times

Data set [2] can be described thus: 19F spin-spin relaxation time (T2) measurement by CPMG method, 500 MHz NMR. Type of data set: physicochemical. To be noted: 5 mM/CDCl3, 36° C. On the procedure: as §1
The compound was dissolved in a deuterated chloroform solution at a concentration of 5 mM, and the transverse relaxation time (T2) of the ^19F nucleus was measured using a 500 MHz NMR device by a Carr-Purcell-Meiboom-Gill (CPMG) method under the conditions described below.
• NMR device: JNM-ECA500 (manufactured by JOEL) • Measurement temperature: 36° C. • relaxation_delay: 10 [s] • tau_step: 1 [ms] • relaxation_delay: 1, 2, 3, 4, 5, 6, 8, 9, 10, 25, 50, 75 [ms], 0.10, 0.25, 0.50, 0.75, 1.00, 1.25, 1.50, 1.75, 2.00 [s] • Accumulated number of times: 128 times

Consider “1,3-Bis(2,2,2-trifluoro-1,1-bis(trifluoromethyl(ethoxy)-2,2-bis((2,2,2-trifluoro-1,1-bis(trifluoromethyl)ethoxy)methyl)propane [Compound A1, reference compound]”, for which the “T1 (19F spin-lattice relaxation time)” value in data set [1] worked out at 1.380 s. In addition, the “T2 (19F spin-spin relaxation time)” value in data set [2] amounted to 1.270 s.
Taken in the same sequence, the figures for “4-(3-((1,1,1,3,3,3-hexafluoro-2-(trifluoromethyl)propan-2-yl)oxy)-2,2-bis(((1,1,1,3,3,3-hexafluoro-2-(trifluoromethyl)propan-2-yl)oxy)methyl)propoxy)-2,2,6,6-tetramethylpiperidin-1-oxyl [Compound 11]” were 0.077 s and 0.057 s.
Consider “4-(3-((1,1,1,3,3,3-hexafluoro-2-(trifluoromethyl)propan-2-yl)oxy)-2-(((1,1,1,3,3,3-hexafluoro-2-(trifluoromethyl)propan-2-yl)oxy)methyl)-2-methylpropoxy)-2,2,6,6-tetramethylpiperidin-1-oxyl [Compound 13]”, for which the “T1 (19F spin-lattice relaxation time)” value in data set [1] worked out at 0.071 s. For the same molecule, the “T2 (19F spin-spin relaxation time)” value in data set [2] turned out to be 0.050 s.
Turning to `CCC1(CC)CC(OCC(COC(C(F)(F)F)(C(F)(F)F)C(F)(F)F)(COC(C(F)(F)F)(C(F)(F)F)C(F)(F)F)COC(C(F)(F)F)(C(F)(F)F)C(F)(F)F)CC(CC)(CC)N1O` [Compound 12, 4-(3-((1,1,1,3,3,3-hexafluoro-2-(trifluoromethyl)propan-2-yl)oxy)-2,2-bis(((1,1,1,3,3,3-hexafluoro-2-(trifluoromethyl)propan-2-yl)oxy)methyl)propoxy)-2,2,6,6-tetraethylpiperidin-1-oxyl], in data set [1], the “T1 (19F spin-lattice relaxation time)” value is 0.070 s. Besides, the “T2 (19F spin-spin relaxation time)” value in data set [2] amounted to 0.049 s.
In the case of `CC1(C)CC(OCCOCC(COC(C(F)(F)F)(C(F)(F)F)C(F)(F)F)(COC(C(F)(F)F)(C(F)(F)F)C(F)(F)F)COC(C(F)(F)F)(C(F)(F)F)C(F)(F)F)CC(C)(C)N1O` [Compound 14], the “T1 (19F spin-lattice relaxation time)” value in data set [1] came to 0.153 s. In data set [2], the “T2 (19F spin-spin relaxation time)” value was determined as 0.101 s.
`CCC1(CC)CC(OCCOCC(COC(C(F)(F)F)(C(F)(F)F)C(F)(F)F)(COC(C(F)(F)F)(C(F)(F)F)C(F)(F)F)COC(C(F)(F)F)(C(F)(F)F)C(F)(F)F)CC(CC)(CC)N1O` [Compound 15]: in data set [1], the “T1 (19F spin-lattice relaxation time)” value worked out at 0.145 s. Also, in data set [2], the “T2 (19F spin-spin relaxation time)” value was found to be 0.092 s.
Regarding `CC1(C)CC(OCCCOCC(COC(C(F)(F)F)(C(F)(F)F)C(F)(F)F)(COC(C(F)(F)F)(C(F)(F)F)C(F)(F)F)COC(C(F)(F)F)(C(F)(F)F)C(F)(F)F)CC(C)(C)N1O` [Compound 16], in data set [1], the “T1 (19F spin-lattice relaxation time)” value was determined as 0.183 s. In data set [2], the “T2 (19F spin-spin relaxation time)” value is 0.120 s.
Taken in the same sequence, the figures for `CCC1(CC)CC(OCCCOCC(COC(C(F)(F)F)(C(F)(F)F)C(F)(F)F)(COC(C(F)(F)F)(C(F)(F)F)C(F)(F)F)COC(C(F)(F)F)(C(F)(F)F)C(F)(F)F)CC(CC)(CC)N1O` [Compound 17] were 0.172 s and 0.108 s.
With `CC1(C)CC(OCCCCCCOCC(COC(C(F)(F)F)(C(F)(F)F)C(F)(F)F)(COC(C(F)(F)F)(C(F)(F)F)C(F)(F)F)COC(C(F)(F)F)(C(F)(F)F)C(F)(F)F)CC(C)(C)N1O` [Compound 18], the “T1 (19F spin-lattice relaxation time)” value in data set [1] worked out at 0.428 s. Besides, the “T2 (19F spin-spin relaxation time)” value in data set [2] turned out to be 0.274 s.
For the molecule `CC1(C)CC(OCCCCCCCCCOCC(COC(C(F)(F)F)(C(F)(F)F)C(F)(F)F)(COC(C(F)(F)F)(C(F)(F)F)C(F)(F)F)COC(C(F)(F)F)(C(F)(F)F)C(F)(F)F)CC(C)(C)N1O` [Compound 19], the “T1 (19F spin-lattice relaxation time)” value in data set [1] was determined as 0.520 s. For the same molecule, the “T2 (19F spin-spin relaxation time)” value in data set [2] came to 0.332 s.
In the case of `CC1(C)CC(OCCCCCCCCCCCCOCC(COC(C(F)(F)F)(C(F)(F)F)C(F)(F)F)(COC(C(F)(F)F)(C(F)(F)F)C(F)(F)F)COC(C(F)(F)F)(C(F)(F)F)C(F)(F)F)CC(C)(C)N1O` [Compound 20], in data set [1], the “T1 (19F spin-lattice relaxation time)” value was 0.612 s. Also, the “T2 (19F spin-spin relaxation time)” value in data set [2] worked out at 0.390 s.

Values taken from patent US20250011287A1, “FLUORINE-CONTAINING COMPOUND AND CONTRAST AGENT” (TDK CORPORATION, priority 2021, published 2025).
